Measured values published in patent US20240309360A1, “TRANS-ACTIVATORS AND METHODS AND USE THEREOF” (THE GOVERNING COUNCIL OF THE UNIVERSITY OF TORONTO, priority 2021, published 2024).

Experiments:
Type in all cases: cell-based, human
[1] = test system: transcriptional activity of 83 transcriptional regulators on the EGFP reporter; assay: Tethered reporter assays in the presence of inhibitors; details: for effect of inhibitor on activity of the activators: 100 nM flavopiridol, 300 nM JQ1, 1 μM A-485, 2.5 μM CX-4945, 3 μM AZ191, 100 μM ABA 48 hours; for effect of inhibitor on activity of NuA4 complex interactors: 1 μM A-485 or 300 nM JQ1, e.g; call rule not given here. JAZF1 and KLF6
Protocol: To functionally investigate the connection between transcriptional activators and co-factors, a panel of 83 robust activators was arrayed. Their activation potential was tested using the reporter assay, but now in the presence of small-molecule inhibitors targeting multiple transcriptional co-regulators. Three kinase inhibitors targeting transcriptional kinases (flavopiridol for CDK9, CX-4945 for casein kinase 2, and AZ191 for DYRK1A and DYRK1B), and two compounds inhibiting transcriptional co-factors (A-485 for CBP/p300, and JQ1 for BET family bromodomain proteins) were employed.
(§1) Arrayed recruitment assays. Reporter cells stably co-expressing ABI-dCas9 and TetO gRNA were seeded either on 48-well or 96-well plates (Sarstedt) to reach 50-70% confluency on the day of transfection. 150 ng of each construct to be tested was transfected with polyethylenimine (PEI) at a ratio of 0.6 μl reagent. The day after transfection, recruitment was induced by treatment with ABA (100 μM). […] Inhibitors were dissolved in DMSO to a stock concentration of 10 mM. The final concentrations used were 100 nM for flavopiridol, 300 nM for JQ1, 1 μM for A-485, 2.5 μM for CX-4945 and 3 μM for AZ191. All inhibitors were a kind gift from the Structural Genomics Consortium (SGC). 48 hours after induction, cells were dissociated and resuspended in flow buffer using a liquid handing robot (TECAN) and analyzed by LSR Fortessa (BD). Cells were gated on high EBFP2 and RFP as a measure of gRNA and transfection control, respectively. Flow cytometry data was analyzed using FlowJo (v10).

[2] = test system: EGFP reporter (7×TetO array, basal CMV promoter) in HEK293T reporter cell line; assay: TAD-seq pooled activation screen of 60-aa fragments fused to PYL1; details: for Hit high GFP: high GFP population (top 1%); for logFC high GFP / logFC medium GFP: log 2 fold change of counts, 100 μM ABA 48 hours; for logFC high GFP: sorted high GFP cells (top 1%) vs unsorted cells; for logFC medium GFP: sorted medium GFP cells (top 2-5%) vs unsorted cells; for Hit medium GFP: medium GFP population (top 2-5%)
Summary of the method: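 60-aa tiles at 20-aa steps from 75 activator proteins, C-terminally fused to PYL1, lentivirally transduced at low MOI into reporter cells co-expressing ABI-dCas9 and promoter gRNA. Recruitment induced with 100 μM abscisic acid for 48 h (DMSO control). Top 1% and next 4% GFP cells sorted; fragments quantified by sequencing, two replicates.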

[3] = test system: EGFP reporter (7×TetO array, basal CMV promoter) in HEK293T reporter cell line; assay: Arrayed recruitment assay, PYL1 fusions individually recruited to reporter via ABI1-dCas9 with ABA; parameters: key to independently validated as transactivating fragment: Fragments marked with * were independently validated; details: fragment fused to PYL1, arrayed format
Description: Treatment of cells with abscisic acid (ABA) induces an interaction between ABI1 and PYL1, thereby recruiting the potential transcriptional activator to a specific genomic locus defined by the guide RNA (gRNA). As a reporter, a HEK293T cell line that contains a stably integrated construct with a 7×TetO array and a basal CMV promoter driving the expression of EGFP was used (Gao et al., 2016). A monoclonal cell line that expresses ABI1-dCas9 and a single gRNA targeting TetO was generated by lentiviral infection.
as §1

[4] = test system: EGFP reporter (TetO7) in HEK293T cells; assay: Multi-TAD effectors fused to PYL1 recruited to EGFP reporter; details: PYL1 fusion, 1 μM abscisic acid, 24 or 48 hours
Protocol: Multiple TADs were fused together with PYL1 and tested for transcriptional activity using the PYL1-ABI EGFP reporter system described above. The following TAD fragments were used: CITED1-8 (SEQ ID NO: 47), CITED2-12 (SEQ ID NO: 49), C3orf62-12 (SEQ ID NO: 45), BRD8-25 (SEQ ID NO: 40), ZXDC-12 (SEQ ID NO: 97), KLF7-1 (SEQ ID NO: 72), ATXN7L3-1 (SEQ ID NO: 35), FAM90A1-20 (SEQ ID NO: 60), SPDYE4-3 (SEQ ID NO: 90), YAF2-7 (SEQ ID NO: 96).
Methods: Cells were seeded on 48-well plates. Next day, after cells were between 70-90% confluent, 250 ng of each construct was transfected in each well using (Thermo Fisher Scientific, 11668019) reagent. Each construct was either directly fused TagRFP either directly fused to each component or being co-expressed from the same plasmid was used as a measure of transfection. In each experiment, the same gate for RFP+ cells were used to control for the effect of each construct's expression levels on activity. EGFP reporter cells were expanded from a clonal line to control for level of ABI-dCas9 and gRNA targeting the TetO7 sites upstream of the promoter. For the CD133 induction experiment, a 293T cell line stably expressing ABI-dCas9 and a pool of 5 gRNAs targeting the promoter were used for all activators. CD133 antibody conjugated to APC (Miltenyi Biotec, 130-113-668) was used. […]

Row | Compound | effect of inhibitor on activity of the activators [1] | Hit high GFP [2] | logFC high GFP [2] | logFC medium GFP [2] | Hit medium GFP [2] | independently validated as transactivating fragment [3] | also measured
1 | CNC(=O)Nc1ccc2c(c1)CC[C@@]21OC(=O)N(CC(=O)N(Cc2ccc(F)cc2)[C@@H](C)C(F)(F)F)C1=O [Fragment A-485, A-485] | strongly affected the activity of some but not all transactivators |  |  |  |  |  | effect of inhibitor on activity of CBP/p300 non-interactors ([1]; 1 μM A-485): only one of the seven non-interactors was affected; effect of inhibitor on activity of KLF6 ([1]; 1 μM A-485): no effect; effect of inhibitor on activity of KLF15 ([1]; 1 μM A-485): inhibited the activity of KLF15; effect of inhibitor on activity of CBP/p300 interactors ([1]; 1 μM A-485, interactors by AP-MS and BioID): four of the six CBP/p300 interactors was significantly decreased; effect of inhibitor on activity of NuA4 complex interactors [1]: not significantly affected; sensitivity of C3orf62-Cterm and SRF-C3orf62 reporter activation to inhibitor ([1]; CBP/p300 inhibition): highly sensitive
2 | COc1cc(N2CCN(C)CC2)ccc1Nc1nccc(-c2cn(C)c3cnccc23)n1 [AZ191] | slightly attenuating the activity of most activators |  |  |  |  |  | effect of inhibitor on activity of DCAF7 and NCKIPSD ([1]; 3 μM AZ191): not affected
3 | Cc1sc2c(c1C)C(c1ccc(Cl)cc1)=N[C@@H](CC(=O)OC(C)(C)C)c1nnc(C)n1-2 [JQ1] | increase in reporter gene activity |  |  |  |  |  | effect of inhibitor on activity of NuA4 complex interactors [1]: not affected
4 | SPDYE4-3: 60-aa TAD-seq fragment of SPDYE4; SPDYE4 activation domain (DPSPQPQSLGLKRKSEWSDESEEELEEELELERAPEPEDTWVVETLCGLKMKLKRKRASS; listed as Homo sapiens) |  | hit | 4.82 | 2.409 | hit | 3* | transcriptional activation of EGFP reporter by TAD fusions [4]: weak activity
5 | ZXDC-12: 60-aa TAD-seq fragment of ZXDC (SPAEQHGAQDTELSAGTGNFYLESGGSARTDYRAIQLAKEKKQRGAGSNAGASQSTQRKI; listed as Homo sapiens) |  | hit | 3.966 | 2.496 | hit | ZXDC-12* | 
6 | ATXN7L3-1: 60-aa TAD-seq fragment of ATXN7L3 (MKMEEMSLSGLDNSKLEAIAQEIYADLVEDSCLGFCFEVHRAVKCGYFFLDDTDPDSMKD; listed as Homo sapiens) |  | hit | 1.638 | 1.684 | hit | 1* | 
7 | CN1CC[C@H](c2c(O)cc(O)c3c(=O)cc(-c4ccccc4Cl)oc23)[C@H](O)C1 [flavopiridol] | nearly complete loss of activity of all activators |  |  |  |  |  | 
8 | FAM90A1-20: 60-aa TAD-seq fragment of FAM90A1 (HPAASHDGAQPLRVLFRRLENGRWSSSLLTAPSFHSPEKPGAFLAQSPHVSEKSEGPCVR; listed as Homo sapiens) |  | hit | 3.017 | 1.616 | hit | 20* | 
9 | ATF6-2: 60-aa TAD-seq fragment of ATF6 (HRLDEDWDSALFAELGYFTDTDELQLEAANETYENNFDNLDFDLDLVPWESDIWDINNQI; listed as Homo sapiens) |  | hit | 4.688 | 1.477 | hit | ATF6-2* | 
10 | BRD8-25: 60-aa TAD-seq fragment of BRD8 (GEELDFETVGDIIAIIEDKVDDHPEVLDVAAVEAALSFCEENDDPQSLPGPWEHPIQQER; listed as Homo sapiens) |  | hit | 1.567 | 1.834 | hit | BRD8-25* | 
